Assay results published in patent US8198273B2, “Compounds and methods for kinase modulation, and indications therefor” (Plexxikon Inc., priority 2009, dated 2012).

How the values were obtained:
[1] = tested on: COLO205 colon adenocarcinoma cells (B-Raf V600E); assay: COLO205 cell growth inhibition (ATPlite); type: cell-based; details: Homo sapiens, COLO 205, 72 h; COLO205, 3 days incubation
Description: (§1) Compounds are assessed in a variety of cell based assays. For example human cell lines with B-Raf V600E mutation (A375 melanoma, SKMEL3 melanoma, and COL0205 colon adenocarcinoma), as well as tumorigenic cell lines with wild-type B-RAF (SW620 colon adenocarcinoma) or with Ras mutations (SKMEL2 melanoma and IPC298 melanoma). Similar assays may be used to assess additional tumorigenic cell lines with Ras mutations, including, but not limited to, M202, M207, M243, M244, M296, S117, HCT116, HCT15, DLD1, MiaPaCa, A549, NCI-H23, NCI-H460, HOP62, MDA-MB231, Hs-578T, HL60, MOLT-4, and CCRF-CEM.
(§2) On day 1, cells are counted, then centrifuged in a conical tube for 5 minutes at 1000 rpm. The supernatant is removed and cells are re-suspended as follows: • SW620 (ATCC catalog #CCL-27): resuspend in Leibovitz's L-15 medium, 2 mM L-glutamine, 10% fetal bovine serum to 6×10^4 cells/mL. • A375 (ATCC catalog #CRL-1619): resuspend in Dulbecco's modified Eagle's medium, 4 mM L-glutamine, 4.5 g/L D-glucose, 10% fetal bovine serum to 6×10^4 cells/mL. • COL0205 (ATCC catalog #CCL-222): resuspend in RPMI 1640, 2 mM L-glutamine, 1.5 g/L sodium bicarbonate, 4.5 g/L D-glucose, 10 mM HEPES, 1.0 mM sodium pyruvate, 10% fetal bovine serum to 6×10^4 cells/mL. • SKMEL2 (ATCC catalog #HTB-68): resuspend in Minimum Eagle essential medium, 2 mM L-glutamine, 1.5 g/L sodium bicarbonate, 0.1 mM non-essential amino acids, 1.0 mM sodium pyruvate, 10% fetal bovine serum to 6×10^4 cells/mL. • SKMEL3 (ATCC catalog #HTB-69): resuspend in McCoy's 5A medium, 1.5 mM L-glutamine, 15% fetal bovine serum to 6×10^4 cells/mL. • IPC298 (DSMZ catalog #ACC 251): resuspend in RPMI 1640, 2 mM L-glutamine, 10% fetal bovine serum to 6×10^4 cells/mL.
(§3) The cells are plated, 50 μL in each well of a 96-well dish (Corning 3610) and incubated at 37° C. in 5% CO2 overnight, cells plated to a final concentration of cells as follows:
(§4) On day 2, compound at a maximum concentration of 5 mM is serially diluted 1:3 for a total of 8 point titration with DMSO as a control. A 1 μL aliquot of each dilution point and control is added to 249 μL growth media and 50 μL is added to a well containing cells, providing 10 μM compound at the maximum concentration point. The cells are incubated for 3 days at 37° C. in 5% CO2.
(§5) On day 5, ATPlite 1 step Luminescence Assay System (Perkin Elmer #6016739) is brought to room temperature along with the cell cultures. ATPlite is added 25 μL to each well, shake for 2 minutes, and the cells are incubated at room temperature for 10 minutes, then luminescence is read on Safire reader. The measured luminescence correlates directly with cell number, such that the reading as a function of compound concentration is used to determine the IC50 value.
(§6) It is understood that the results of these assays may vary as assay conditions are varied. Inhibition levels determined under the conditions described herein represent a relative activity for the compounds tested under the specific conditions employed. The cell based assays are likely to show variability due to the complexity of the system and the sensitivity thereof to any changes in the assay conditions. […] Results for compounds that are tested and show substantially no inhibition below the highest tested concentration are represented as “-” in the tables below. In some instances, the compounds were not tested in all of the assays, or assay results were not valid, as indicated by NA in the tables below.

[2] = tested on: SW620 colon adenocarcinoma cells (wild-type B-RAF); assay: SW620 cell growth inhibition (ATPlite); type: cell-based; details: Homo sapiens, SW-620, 72 h; SW620, 3 days incubation
Description: as §1, §2, §3, §4, §5, §6

[3] = tested on: A375 melanoma cells (B-Raf V600E); assay: A375 cell growth inhibition (ATPlite); type: cell-based; details: Homo sapiens, A-375, 72 h; A375, 3 days incubation
Description: as §1, §2, §3, §4, §5, §6

[4] = tested on: SKMEL2 melanoma cells (Ras mutation); assay: SKMEL2 cell growth inhibition (ATPlite); type: cell-based; details: Homo sapiens, SK-MEL-2, 72 h; SKMEL2, 3 days incubation
Description: as §1, §2, §3
SKMEL2: 2,000 cells per well.
as §4, §5, §6

[5] = Relative solubility by turbidity in aqueous buffers of varying pH; type: physicochemical
Description: As an indication of relative solubility, the turbidity of compounds in aqueous solutions is assessed. To assess possible compound properties in different physiological compartments, such as stomach, intestine, and blood, a series of aqueous buffers with varying pH is used. Thus each compound is diluted into four different physiologically relevant buffers and solution turbidity is measured by spectrophotometry.
Compounds are dissolved at a concentration of 25 mM in dimethyl sulfoxide, then serially diluted 1:1 into a 96 well plate, diluting 10 times in pure dimethyl sulfoxide, with the final well of each row a dimethyl sulfoxide blank. In an assay plate, 99 μL of appropriate buffer is added to each well, and 1 μL of each sample dilution is added to the buffer, achieving a range of final total concentrations in aqueous solutions having different pH. The buffers used are Simulated Gastric Fluid (SGF-pH 1.5) 0.5M NaCl, pH 1.5; Simulated Intestinal fluid (SIF-pH 4.5 and pH 6.8) 0.05M NaH2PO4, pH 4.5 and 6.8; and Hepes Buffer (HEPES-pH 7.4) 10 mM HEPES, 150 mM NaCl, pH 7.4. Control compounds pyrene, estriol and propranolol HCl are also assessed. Plates are spun and then mixed for 1 minute, and the absorbance is read using a Tecan Safire II to read wavelengths in the visible range (490, 535, and 650 nm) at four locations per well, reflecting the degree of turbidity present. The average optical density for each wavelength in each well is graphed vs. compound concentration, and the concentration at which the curve crosses a threshold O.D. of 0.01 for each wavelength is reported as the endpoint turbidity assay result. The average of the three wavelengths is used to compare turbidity of compounds. Compounds are considered to have low solubility if the threshold concentration is <31.3 04, moderate solubility if the threshold concentration is 31.3 μM to 250 μM, and high solubility if the threshold concentration is >250 μM.

B-Raf = B-Raf (Homo sapiens, UniProt P15056); assay: B-Raf biochemical kinase inhibition (AlphaScreen, biotin-MEK1 substrate); details: 100 μM ATP
Description: (§7) Compounds to be tested are diluted in dimethyl sulfoxide to a concentration of 0.1 mM. These are serially diluted 15 μL into 30 μL of dimethyl sulfoxide seven times in 96 well plates for a total of 8 dilution points, and for each dilution point 1 μL is added to a well of an assay plate. […] The reaction is started with addition of 10 μL of 200 μM ATP (i.e. final 100 μM ATP). […] The plates are incubated for 3 hours at room temperature and read on Envision reader (Perkin Elmer). […] The signal vs. compound concentration is used to determine the IC50.

B-Raf V600E = B-Raf V600E (Homo sapiens, UniProt P15056, V600E); assay: B-Raf V600E biochemical kinase inhibition (AlphaScreen, biotin-MEK1 substrate); details: 100 μM ATP
Description: as §7

CYP2C19 = CYP2C19 (Homo sapiens, UniProt P33261); assay: CYP2C19 inhibition (fluorescent substrate); type: in vitro ADME; details: CYP2C19, CEC substrate; read-out: Cyp IC50 2C19
Description: (§8) CYP (Cytochrome P450) enzymes are the major drug metabolizing enzymes present in the liver. The inhibition of CYP enzyme activity (IC50) for each of CYP1A2, CYP2C19, CYP2C9, CYP2D6, CYP3A4(BFC) and CYP3A4(BQ) is determined for compounds, where inhibition of metabolism of a known substrate leads to a decrease in the fluorescence of the metabolized product. The fluorescence of the product is monitored as a function of compound concentration.
(§9) Compounds are dissolved in dimethyl sulfoxide to a concentration of 100 mM. These are diluted 1 μL into 82 μL of acetonitrile. […] These are then serially diluted 1:1 (160 μL to 160 μL co-factor mix) for a total of 10 points. A 10 μL aliquot of this final mixture is dispensed into 384 well assay plates and incubated for 10 minutes at 37° C. […] Assay plates are incubated at 37° C. […] The signal versus compound concentration is used to determine the IC50. The enzymes and substrates for this assay are obtained from BD Biosciences.

CYP1A2 = target: T1, CYP1A2 (Homo sapiens, UniProt P05177); assay: CYP1A2 inhibition (fluorescent substrate); type: in vitro ADME; details: CYP1A2, CEC substrate; read-out: Cyp IC50 1A2
T1 sequence (P05177 1-516): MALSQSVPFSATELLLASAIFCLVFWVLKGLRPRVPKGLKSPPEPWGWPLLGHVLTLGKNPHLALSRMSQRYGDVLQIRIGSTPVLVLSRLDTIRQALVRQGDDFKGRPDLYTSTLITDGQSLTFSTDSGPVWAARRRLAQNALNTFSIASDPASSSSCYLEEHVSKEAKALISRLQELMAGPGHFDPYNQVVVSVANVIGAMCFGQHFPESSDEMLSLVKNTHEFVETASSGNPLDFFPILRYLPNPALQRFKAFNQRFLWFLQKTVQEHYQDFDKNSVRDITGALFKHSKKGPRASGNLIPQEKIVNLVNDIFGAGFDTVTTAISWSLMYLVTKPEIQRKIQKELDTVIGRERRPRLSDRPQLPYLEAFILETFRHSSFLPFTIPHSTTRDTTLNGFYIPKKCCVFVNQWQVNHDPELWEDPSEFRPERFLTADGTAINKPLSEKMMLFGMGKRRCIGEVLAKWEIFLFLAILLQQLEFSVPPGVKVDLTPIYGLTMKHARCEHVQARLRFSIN
Description: as §8, §9

CYP2C9 = CYP2C9 (Homo sapiens, UniProt P11712); assay: CYP2C9 inhibition (fluorescent substrate); type: in vitro ADME; details: CYP2C9, MFC substrate; read-out: Cyp IC50 2C9
Description: as §8, §9

c-Raf-1 = c-Raf-1 (Homo sapiens, UniProt P04049); assay: c-Raf-1 biochemical kinase inhibition (AlphaScreen, biotin-MEK1 substrate); details: 100 μM ATP
Description: as §7

CYP3A4(BQ) = CYP3A4(BQ) (Homo sapiens, UniProt P08684); assay: CYP3A4(BQ) inhibition (fluorescent substrate); type: in vitro ADME; details: read-out: Cyp IC50 3A4(BQ)
Description: as §9, with “CYP (Cytochrome P450) enzymes are the major drug metabolizing enzymes present in the liver. The inhibition of CYP enzyme activity (IC50) for each of CYP1A2, CYP2C19, CYP2C9, CYP2D6, CYP3A4(BFC) and CYP3A4(BQ) is determined for compounds, where inhibition of metabolism of a known substrate leads to a decrease in the fluorescence of the metabolized product. The fluorescence of the product is monitored as a function of compound concentration. Compounds” for “Compounds”

CYP2D6 = CYP2D6 (Homo sapiens, UniProt P10635); assay: CYP2D6 inhibition (fluorescent substrate); type: in vitro ADME; details: CYP2D6, AMMC substrate; read-out: Cyp IC50 2D6
Description: as §8, §9

CYP3A4(BFC) = CYP3A4(BFC) (Homo sapiens, UniProt P08684); assay: CYP3A4(BFC) inhibition (fluorescent substrate); type: in vitro ADME; details: read-out: Cyp IC50 3A4(BFC)
Description: as §9, with “CYP (Cytochrome P450) enzymes are the major drug metabolizing enzymes present in the liver. The inhibition of CYP enzyme activity (IC50) for each of CYP1A2, CYP2C19, CYP2C9, CYP2D6, CYP3A4(BFC) and CYP3A4(BQ) is determined for compounds, where inhibition of metabolism of a known substrate leads to a decrease in the fluorescence of the metabolized product. The fluorescence of the product is monitored as a function of compound concentration. Compounds” for “Compounds”

Chain of B-Raf V600E (P15056 whole entry V600E): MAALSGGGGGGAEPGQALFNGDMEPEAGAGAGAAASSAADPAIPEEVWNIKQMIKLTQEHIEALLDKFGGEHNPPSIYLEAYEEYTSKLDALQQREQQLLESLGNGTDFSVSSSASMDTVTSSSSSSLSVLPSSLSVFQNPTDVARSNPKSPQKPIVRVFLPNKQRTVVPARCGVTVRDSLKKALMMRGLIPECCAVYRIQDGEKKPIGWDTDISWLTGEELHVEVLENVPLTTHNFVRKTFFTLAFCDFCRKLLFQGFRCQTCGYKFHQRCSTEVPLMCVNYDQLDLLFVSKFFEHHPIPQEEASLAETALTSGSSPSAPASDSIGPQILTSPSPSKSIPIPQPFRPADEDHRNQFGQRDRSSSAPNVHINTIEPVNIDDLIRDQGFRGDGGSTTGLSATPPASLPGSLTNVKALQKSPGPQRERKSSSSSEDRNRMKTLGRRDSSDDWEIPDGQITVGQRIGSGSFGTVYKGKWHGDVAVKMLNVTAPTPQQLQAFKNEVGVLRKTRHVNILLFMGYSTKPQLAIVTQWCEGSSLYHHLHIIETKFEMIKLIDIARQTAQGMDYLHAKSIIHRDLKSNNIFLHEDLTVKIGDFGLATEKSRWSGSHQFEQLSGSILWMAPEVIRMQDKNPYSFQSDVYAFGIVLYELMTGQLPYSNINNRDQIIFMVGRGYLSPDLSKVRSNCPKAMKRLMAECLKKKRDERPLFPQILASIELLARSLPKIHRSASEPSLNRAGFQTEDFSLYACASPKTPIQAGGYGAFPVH
Chain of B-Raf (P15056 whole entry): as the sequence (P15056 whole entry V600E) above, with E600V counted along it
Chain of CYP2C19 (P33261 whole entry): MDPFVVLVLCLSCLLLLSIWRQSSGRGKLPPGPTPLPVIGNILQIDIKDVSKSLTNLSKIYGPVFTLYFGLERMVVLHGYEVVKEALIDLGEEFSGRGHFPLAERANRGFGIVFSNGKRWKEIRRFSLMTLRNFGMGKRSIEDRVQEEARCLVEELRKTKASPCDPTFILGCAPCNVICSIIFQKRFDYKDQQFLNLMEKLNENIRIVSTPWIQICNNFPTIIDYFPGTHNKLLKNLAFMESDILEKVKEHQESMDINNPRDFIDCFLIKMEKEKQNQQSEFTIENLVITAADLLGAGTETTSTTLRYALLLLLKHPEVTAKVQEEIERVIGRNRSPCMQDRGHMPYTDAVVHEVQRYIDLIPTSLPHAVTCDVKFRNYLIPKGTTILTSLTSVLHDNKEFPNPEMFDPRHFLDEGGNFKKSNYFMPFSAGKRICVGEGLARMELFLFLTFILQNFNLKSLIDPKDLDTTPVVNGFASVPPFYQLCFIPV
Chain of c-Raf-1 (P04049 whole entry): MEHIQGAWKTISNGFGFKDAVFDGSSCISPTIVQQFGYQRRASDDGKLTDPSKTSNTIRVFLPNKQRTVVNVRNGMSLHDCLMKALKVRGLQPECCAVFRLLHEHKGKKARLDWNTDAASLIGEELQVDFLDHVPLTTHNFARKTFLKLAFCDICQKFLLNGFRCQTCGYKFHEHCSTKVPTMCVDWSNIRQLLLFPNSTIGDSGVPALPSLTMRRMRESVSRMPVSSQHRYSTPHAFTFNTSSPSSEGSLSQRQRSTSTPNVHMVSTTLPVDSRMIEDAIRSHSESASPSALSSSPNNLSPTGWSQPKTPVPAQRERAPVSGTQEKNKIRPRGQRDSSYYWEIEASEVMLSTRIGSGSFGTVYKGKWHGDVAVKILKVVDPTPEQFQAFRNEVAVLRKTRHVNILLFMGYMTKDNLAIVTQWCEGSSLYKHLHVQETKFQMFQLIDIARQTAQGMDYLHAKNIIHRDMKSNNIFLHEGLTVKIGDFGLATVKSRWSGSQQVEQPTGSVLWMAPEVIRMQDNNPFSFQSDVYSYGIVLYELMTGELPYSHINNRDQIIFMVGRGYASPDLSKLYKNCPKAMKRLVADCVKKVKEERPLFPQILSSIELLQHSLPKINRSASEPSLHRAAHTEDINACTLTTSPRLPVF
Chain of CYP3A4(BQ) (P08684 whole entry): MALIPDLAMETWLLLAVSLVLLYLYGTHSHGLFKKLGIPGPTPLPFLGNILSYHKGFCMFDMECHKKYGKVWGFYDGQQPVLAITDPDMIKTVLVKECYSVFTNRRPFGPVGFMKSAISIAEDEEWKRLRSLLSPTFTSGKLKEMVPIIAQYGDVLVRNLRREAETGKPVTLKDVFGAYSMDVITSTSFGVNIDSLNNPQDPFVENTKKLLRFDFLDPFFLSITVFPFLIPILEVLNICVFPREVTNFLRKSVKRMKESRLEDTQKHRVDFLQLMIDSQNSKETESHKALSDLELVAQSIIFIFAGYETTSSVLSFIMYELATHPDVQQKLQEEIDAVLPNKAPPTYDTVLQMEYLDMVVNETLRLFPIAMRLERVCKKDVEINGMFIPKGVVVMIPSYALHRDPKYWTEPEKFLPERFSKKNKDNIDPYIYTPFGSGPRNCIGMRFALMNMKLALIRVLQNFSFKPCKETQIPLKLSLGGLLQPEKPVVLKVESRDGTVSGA
Chain of CYP3A4(BFC) (P08684 whole entry): as above
Chain of CYP2D6 (P10635 whole entry): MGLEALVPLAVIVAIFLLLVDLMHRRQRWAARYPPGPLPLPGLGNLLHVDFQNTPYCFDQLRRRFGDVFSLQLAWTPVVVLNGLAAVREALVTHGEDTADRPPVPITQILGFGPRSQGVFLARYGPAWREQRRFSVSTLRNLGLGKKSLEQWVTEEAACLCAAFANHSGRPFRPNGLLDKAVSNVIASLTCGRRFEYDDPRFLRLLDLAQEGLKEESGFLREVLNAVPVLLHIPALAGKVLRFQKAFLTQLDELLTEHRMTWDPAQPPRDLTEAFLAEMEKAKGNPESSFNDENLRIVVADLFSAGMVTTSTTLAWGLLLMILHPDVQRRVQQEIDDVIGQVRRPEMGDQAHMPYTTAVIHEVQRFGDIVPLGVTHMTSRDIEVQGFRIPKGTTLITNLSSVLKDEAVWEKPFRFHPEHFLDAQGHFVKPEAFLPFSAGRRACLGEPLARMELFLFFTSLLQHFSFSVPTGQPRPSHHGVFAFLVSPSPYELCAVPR
Chain of CYP2C9 (P11712 whole entry): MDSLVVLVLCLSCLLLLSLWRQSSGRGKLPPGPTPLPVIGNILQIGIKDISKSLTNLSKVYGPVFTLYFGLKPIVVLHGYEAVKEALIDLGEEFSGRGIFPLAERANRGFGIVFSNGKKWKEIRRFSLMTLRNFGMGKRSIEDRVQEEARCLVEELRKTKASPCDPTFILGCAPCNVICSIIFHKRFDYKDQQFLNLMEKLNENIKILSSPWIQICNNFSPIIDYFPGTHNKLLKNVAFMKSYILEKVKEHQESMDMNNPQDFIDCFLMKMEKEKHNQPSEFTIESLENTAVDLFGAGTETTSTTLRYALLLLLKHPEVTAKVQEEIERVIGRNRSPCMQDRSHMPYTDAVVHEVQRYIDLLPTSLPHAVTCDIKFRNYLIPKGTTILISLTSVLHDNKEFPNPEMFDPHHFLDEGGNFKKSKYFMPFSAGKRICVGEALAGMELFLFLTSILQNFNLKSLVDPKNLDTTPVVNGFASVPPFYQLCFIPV

Row | IC50 [1] [µM] | IC50 [2] [µM] | IC50 [3] [µM] | IC50 [4] [µM] | IC50 (B-Raf) [µM] | IC50 (B-Raf V600E) [µM] | IC50 (CYP2C19) [µM] | IC50 (CYP1A2) [µM] | IC50 (CYP2C9) [µM] | IC50 (c-Raf-1) [µM] | IC50 (CYP3A4(BQ)) [µM] | IC50 (CYP2D6) [µM] | IC50 (CYP3A4(BFC)) [µM] | Compound | turbidity threshold (L, M, H) 7.4 ([5]; HEPES pH 7.4) | turbidity threshold (L, M, H) 4.5 ([5]; SIF pH 4.5) | turbidity threshold (L, M, H) 6.8 ([5]; SIF pH 6.8) | turbidity threshold (L, M, H) 1.4 ([5]; buffer pH 1.4 (SGF))
1 | < 10 | > 10 | < 5 | > 10 | – | – | – | – | – | – | – | – | – | O=C(c1c(F)ccc(NS(=O)(=O)c2cccnc2)c1F)c1c[nH]c2nccc(Cl)c12 [P-2074, Pyridine-3-sulfonic acid [3-(4-chloro-1H-pyrrolo[2,3-b]pyridine-3-carbonyl)-2,4-difluoro-phenyl]-amide] | – | – | – | –
2 | – | > 10 | < 10 | > 10 | – | – | – | – | – | – | – | – | – | N#Cc1cnc2[nH]cc(C(=O)c3cccc(NS(=O)(=O)c4cccnc4)c3F)c2c1 [P-2086, Pyridine-3-sulfonic acid [3-(5-cyano-1H-pyrrolo[2,3-b]pyridine-3-carbonyl)-2-fluoro-phenyl]-amide] | H (high solubility if the threshold concentration is >250 μM) | M (moderate solubility if the threshold concentration is 31.3 μM to 250 μM) | M (moderate solubility if the threshold concentration is 31.3 μM to 250 μM) | M (moderate solubility if the threshold concentration is 31.3 μM to 250 μM)
3 | – | > 10 | < 1 | – | < 0.01 | < 0.01 | – | – | – | – | – | – | – | CCCS(=O)(=O)Nc1ccc(F)c(C(=O)c2c[nH]c3ncc(-c4cnc(OCCCN(C)C)nc4)cc23)c1F [P-2203, Propane-1-sulfonic acid (3-{5-[2-(3-dimethylamino-propoxy)-pyrimidin-5-yl]-1H-pyrrolo[2,3-b]pyridine-3-carbonyl}-2,4-difluoro-phenyl)-amide] | – | – | – | –
4 | – | – | – | – | < 0.01 | < 0.01 | > 10 | > 10 | > 10 | < 0.01 | > 10 | > 10 | > 10 | CCCS(=O)(=O)Nc1ccc(F)c(C(=O)c2c[nH]c3ncc(-c4ccc(S(=O)(=O)C(C)C)cc4)cc23)c1F [P-2223, Propane-1-sulfonic acid (2,4-difluoro-3-{5-[4-(propane-2-sulfonyl)-phenyl]-1H-pyrrolo[2,3-b]pyridine-3-carbonyl}-phenyl)-amide] | – | – | – | –
